# Data from patent US9169241B2, “Quinolinyloxyphenylsulfonamides” (Max-Planck-Gesellschaft Zur Forderung der Wissenschaften …, priority 2009, dated 2015).
# Like-named read-outs stand apart in the source and are kept apart here.
# What was measured:
# [1] = system: Hs578T; test: Cell vitality assay (ATP assay, CellTiter-Glo); assay type: cell-based; conditions: Homo sapiens, Hs-578T, 72 h
# Procedure, shortened: (§1)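 Luminescent ATP read-out of viable cells; IC50 = concentration at which ATP falls to 50% of DMSO control. Cells seeded at 1000/well, treated 72 h with seven concentrations from 0.195 to 12.5 μM.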
# [2] = system: SF126; test: Cell vitality assay (ATP assay, CellTiter-Glo); assay type: cell-based; conditions: Homo sapiens, SF-126
# Procedure, shortened: as §1
# [3] = system: U118; test: Cell vitality assay (ATP assay, CellTiter-Glo); assay type: cell-based
# Procedure, shortened: as §1
# [4] = system: tumor cell; test: Matrigel outgrowth assay/branching assay (Table Va); assay type: cell-based
# Procedure, shortened: (§2)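 Matrigel 3 mg/ml, polymerized 1 h 37° C; 5000 cells/well + cmpd 3.125/1.56/0.78 μM or DMSO. Imaged 48/72/96 h, 5× objective. Positive = total branching block.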
# [5] = system: indicated cell line; test: Wound healing migration assay (Table IV); assay type: cell-based; conditions: compounds at 12.5, 6.25, 3.125 μM, 48 h-72 h
# Procedure, shortened: (§3)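 Compound exposure at 12.5, 6.25 and 3.125 μM, with DMSO control, on scratch-wounded monolayers (150000 cells/24 well, overnight). Wound closure imaged by microscopy, fixed with crystal violet after 48 h or 72 h depending on cell line; IC50 is the concentration giving 50% wound size between t0 and t48/t72.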
# [6] = system: Hs578T; test: Wound healing migration assay; assay type: cell-based; conditions: Homo sapiens, Hs-578T; HS578T cell line; Table Ib
# Procedure, shortened: as §3
# [7] = system: Hs578T; test: Matrigel outgrowth assay/branching assay; assay type: cell-based; conditions: Homo sapiens, Hs-578T; HS578T cell line; Table Ib; read-out: Total branching inhibition in Matrigel HS578T
# Procedure, shortened: as §2
# [8] = system: SF126; test: Matrigel outgrowth assay/branching assay; assay type: cell-based; conditions: Homo sapiens, SF-126, Table Vb, read-out: Total branching inhibition in Matrigel SF126
# Procedure, shortened: as §2
# [9] = system: U118; test: Matrigel outgrowth assay/branching assay; assay type: cell-based; conditions: Table Vb, read-out: Total branching inhibition in Matrigel U118
# Procedure, shortened: as §2
# [10] = system: A172; test: Matrigel outgrowth assay/branching assay; assay type: cell-based; conditions: Homo sapiens, A 172, Table Vb, read-out: Total branching inhibition in Matrigel A172
# Procedure, shortened: as §2
# [11] = HS578T cell line, Table Ib, read-out: IC50 ATP-Assay HS578T after 72 h
# [12] = Hs578T, Table IIa, read-out: IC50 ATP-Assay after 72 h Hs578T
# [13] = SF126, 72 h, Table IIa, read-out: IC50 ATP-Assay after 72 h SF126
# [14] = U118, 72 h, Table IIa, read-out: IC50 ATP-Assay after 72 h U118
# [15] = Homo sapiens, C8161 cells, read-out: Total branching inhibition in Matrigel C8161
# [16] = Homo sapiens, Hs-578T, Hs578T cells, read-out: Total branching inhibition in Matrigel Hs578T
# [17] = U118 cells, read-out: Total branching inhibition in Matrigel U118
# [18] = U138 cells, read-out: Total branching inhibition in Matrigel U138
# [19] = Homo sapiens, A 172, A172 cells, read-out: IC50 Wound healing Assay A172
# [20] = Homo sapiens, SF-126, SF126 cells, read-out: IC50 Wound healing Assay SF126
# [21] = Homo sapiens, C8161 cells, read-out: IC50 Wound healing Assay C8161
# [22] = SF763 cells, read-out: IC50 Wound healing Assay SF763
# [23] = U118 cells, read-out: IC50 Wound healing Assay U118
SMILES,"IC50 [1, 11] [µM]","IC50 [1, 12] [µM]","IC50 [2, 13] [µM]","IC50 [3, 14] [µM]",melting point [°C],"IC50 [4, 15] [µM]","IC50 [4, 16] [µM]","IC50 [4, 17] [µM]","IC50 [4, 18] [µM]","IC50 [5, 19] [µM]","IC50 [5, 20] [µM]","IC50 [5, 21] [µM]","IC50 [5, 22] [µM]","IC50 [5, 23] [µM]",IC50 [6] [µM],IC50 [7] [µM],IC100 [8] [µM],IC100 [9] [µM],IC100 [10] [µM],also measured
"COc1cc2c(Oc3ccc(NS(=O)(=O)c4cc(F)ccc4F)cc3F)ccnc2cc1OCCCN1CCCCC1 [Example 1, 2,5-Difluoro-N-{3-fluoro-4-[6-methoxy-7-(3-piperidin-1-yl-propoxy)-quinolin-4-yloxy]-phenyl}-benzenesulfonamide]",≤ 12.5,12.5 to 50,≤ 12.5,≤ 12.5,206 to 208,≤ 5,≤ 5,≤ 5,≤ 5,≤ 12.5,≤ 12.5,≤ 12.5,≤ 12.5,≤ 12.5,≤ 12.5,≤ 10,≤ 12.5,≤ 12.5,≤ 12.5,"IC50 ([2]; cell vitality assay, SF126, Table IIb, read-out: IC50 SF126): ≤ 12.5 µM; IC50 ([3]; cell vitality assay, U118, Table IIc, read-out: IC50 U118): ≤ 12.5 µM"
"COc1cc2c(Oc3ccc(NS(=O)(=O)c4ccccc4[N+](=O)[O-])cc3F)ccnc2cc1OCCCN1CCCCC1 [Example 7, N-{3-Fluoro-4-[6-methoxy-7-(3-piperidin-1-yl-propoxy)-quinolin-4-yloxy]-phenyl}-2-nitro-benzenesulfonamide]",≤ 12.5,≤ 12.5,12.5 to 50,12.5 to 50,113 to 116,≤ 5,5 to 50,≤ 5,5 to 50,≤ 12.5,≤ 12.5,≤ 12.5,≤ 12.5,≤ 12.5,≤ 12.5,10 to 25,≤ 12.5,≤ 12.5,> 12.5,
"COc1cc2c(Oc3ccc(NS(=O)(=O)c4cccc(-c5ccccc5)c4)cc3F)ccnc2cc1OCCCN1CCCCC1 [Example 8, Biphenyl-3-sulfonic acid {3-fluoro-4-[6-methoxy-7-(3-piperidin-1-yl-propoxy)-quinolin-4-loxy]-phenyl}-amide]",12.5 to 50,12.5 to 50,≤ 12.5,≤ 12.5,113 to 115,≤ 5,≤ 5,≤ 5,≤ 5,≤ 12.5,≤ 12.5,12.5 to 50,≤ 12.5,≤ 12.5,≤ 12.5,≤ 10,≤ 12.5,≤ 12.5,≤ 12.5,
"COc1cc2c(Oc3ccc(NS(=O)(=O)c4cccc(Oc5ccccc5)c4)cc3F)ccnc2cc1OCCCN1CCCCC1 [Example 10, N-{3-Fluoro-4-[6-methoxy-7-(3-piperidin-1-yl-propoxy)-quinolin-4-yloxy]-phenyl}-3-phenoxy-benzenesulfonamide]",12.5 to 50,12.5 to 50,≤ 12.5,≤ 12.5,146 to 147,≤ 5,≤ 5,≤ 5,5 to 50,≤ 12.5,≤ 12.5,≤ 12.5,≤ 12.5,≤ 12.5,≤ 12.5,≤ 10,≤ 12.5,≤ 12.5,≤ 12.5,
"COc1cc2c(Oc3ccc(NS(=O)(=O)c4ccccc4Cl)cc3F)ccnc2cc1OCCCN1CCCC(C)C1 (centres unmarked) [Example 38, 2-Chloro-N-(3-fluoro-4-{6-methoxy-7-[3-(3-methyl-piperidin-1-yl)-propoxy]-quinolin-4-yloxy}-phenyl)-benzenesulfonamide]",12.5 to 50,12.5 to 50,≤ 12.5,≤ 12.5,115 to 118,≤ 5,≤ 5,≤ 5,5 to 50,≤ 12.5,≤ 12.5,≤ 12.5,12.5 to 50,≤ 12.5,≤ 12.5,≤ 10,≤ 12.5,> 12.5,≤ 12.5,
"COc1cc2c(Oc3ccc(NS(=O)(=O)c4ccc(F)cc4F)cc3F)ccnc2cc1OCCCN1CCCC(C)C1 (centres unmarked) [Example 47, 2,4-Difluoro-N-(3-fluoro-4-{6-methoxy-7-[3-(3-methyl-piperidin-1-yl)-propoxy]-quinolin-4-yloxy}-phenyl)-benzenesulfonamide]",≤ 12.5,≤ 12.5,≤ 12.5,≤ 12.5,118 to 120,≤ 5,≤ 5,≤ 5,5 to 50,≤ 12.5,≤ 12.5,≤ 12.5,≤ 12.5,≤ 12.5,≤ 12.5,≤ 10,≤ 12.5,≤ 12.5,> 12.5,
"COc1cc2c(Oc3c(Cl)cc(NS(=O)(=O)c4ccccc4C(F)(F)F)cc3Cl)ccnc2cc1OCCCN1CCC(C)CC1 [Example 210, N-(3,5-Dichloro-4-{6-methoxy-7-[3-(4-methyl-piperidin-1-yl)-propoxy]-quinolin-4-yloxy}-phenyl)-2-trifluoromethyl-benzenesulfonamide]",≤ 12.5,,≤ 12.5,≤ 12.5,148 to 151,,,,,≤ 12.5,≤ 12.5,,,≤ 12.5,≤ 12.5,≤ 10,≤ 12.5,≤ 12.5,> 12.5,
